# Results: patent EP1342779A1, “Means and methods for manipulating hypersensitivity-like responses” (Fornix Biosciences N.V., priority 2002, dated 2003)
# Experiments:
# Ig light chain [1] = assay: Ig-LC-induced ear swelling after hapten challenge of mice passively sensitized with TNP-specific Ig-LC (inhibition by F991); assay type: in vivo
# Source text: F991 is developed as an antagonist of Ig light chain. The working hypothesis for this compound is that it binds to Ig light chains and thereby prevents binding of light chains to their putative receptors. F991 is a 9-mer peptide derived from the endogenous protein uromodulin. The potency of F991 to inhibit Ig-LC induced cutaneous reactions (ear swelling responses) was studied. Our working hypothesis for this compound is that it is an antagonist of Ig-LC and binds to Ig-LC and thereby prevents binding of Ig-LC to their putative receptors. F991 was administered in different dosages, via various administration routes.
# Indicated amounts of F991 per mouse were intravenously injected at 30 min before hapten challenge. At that same time point mice were injected (passively sensitized) with TNP-specific Ig-LC or vehicle (PBS). […]
# Mice were i.v. sensitized with 2 µg TNP-specific Ig light chain at 30 min before ear challenge with TNP. Control mice were injected with PBS instead of Ig light chain. […]
# DNFB-sensitized mice = assay: Contact sensitivity after active sensitization with DNFB, ear swelling; assay type: in vivo; details: F991 topically on the ears 4 hours before challenge
# Procedure: • A. F991 was prepared as an ointment in Cremor Cetomacrogolis FNA and topically applied on the ear at 4 hours before hapten challenge. Subsequently, mice were passively sensitized with 2 µg TNP-specific Ig-LC n at 30 min before and ear thickness was measured 2 hours after hapten challenge of the ears. […] Therefore F991 was applied on the back of the mice instead of at the site of hapten challenge (ear). Mice were again sensitized and challenged as described above. […] This means that epicutaneous treatment should be done at the site of challenge (Figure 14). • C. Stability of F991 in ointment To determine the stability of F991 in ointment, different preparations of F991 in Cremor Cetamacrogolis FNA were tested for their activity after storage for 2-3 months at room temperature and at 4 degrees Celsius. The different preparations were applied at the ear as described in A. and subsequently ear swelling was monitored after hapten challenge of Ig-LC-sensitized animals. […] Mice were sensitized with a low molecular weight compound DNFB on the skin and footpads (on day 0 and 1). […]
# Topical treatment of DNFB-sensitized mice at 4 hours before hapten challenge results in complete inhibition of the development of contact sensitivity response as determined by earswelling at 2 and 24 hours after challenge.
# [2] = tested on: myelin oligodendrocyte glycoprotein (MOG)-induced experimental allergic encephalomyelitis (EAE); assay: MOG-induced experimental allergic encephalomyelitis (EAE), mouse model for MS; assay type: in vivo
# Source text: If light chains were involved in the activation of mast cells in patients with MS, the prediction is that F991 may be of therapeutic interest in the treatment of MS. We tested if F991 was able to prevent of reduce development clinical signs in an established mouse model for MS, i.e. myelin oligodendrocyte glycoprotein (MOG)-induced experimental allergic encephalomyelitis (EAE). Mouse were sensitized with antigenic peptide 35-55 from MOG in complete freund adjuvant. At the day of sensitization and 3 days later, mice also received an injection with pertussis toxin. In general, 10-12 days after the start of sensitization mice develop clinical signs of MS, which can be scored in degree of paralysis (0=no paralysis, 1=tail flaccidity, 2=hind limb weakness, 3=hind limb paralysis, 4=forelimb paralysis or loss of ability to right supine, 5=death). To investigate if F991 is able to prevent development of clinical signs of MS, mice were daily injected with 50 µg F991/animal i.p. starting at day -1 until day 21. […] Control mice developed disease with a mean day of onset of 11.8 and a mean clinical score of 2.3. There was a significant difference in disease burden (mean cumulative EAE score) between the F991 (mean 4.2) treated group and the control group (mean 18.3). […] (Figure 17).
# Ig light chain [3] = assay: Stability of F991 in ointment, read out as activity in the ear swelling test after storage; assay type: in vivo, mice; details: Cremor Cetamacrogolis FNA, stored 2-3 months at room temperature and at 4 degrees Celsius
# Procedure: • A. F991 was prepared as an ointment in Cremor Cetomacrogolis FNA and topically applied on the ear at 4 hours before hapten challenge. Subsequently, mice were passively sensitized with 2 µg TNP-specific Ig-LC n at 30 min before and ear thickness was measured 2 hours after hapten challenge of the ears. […] Therefore F991 was applied on the back of the mice instead of at the site of hapten challenge (ear). Mice were again sensitized and challenged as described above. […] This means that epicutaneous treatment should be done at the site of challenge (Figure 14). • C. Stability of F991 in ointment To determine the stability of F991 in ointment, different preparations of F991 in Cremor Cetamacrogolis FNA were tested for their activity after storage for 2-3 months at room temperature and at 4 degrees Celsius. The different preparations were applied at the ear as described in A. and subsequently ear swelling was monitored after hapten challenge of Ig-LC-sensitized animals. […] Mice were sensitized with a low molecular weight compound DNFB on the skin and footpads (on day 0 and 1). 5 days after the start of sensitization and 4 hours before local challenge with hapten, mice were treated with F991 on the ears.
# [4] = 50 µg F991/animal i.p. daily from day -1 until day 21
substance,measurement,setting,value
"F991: 9-mer peptide derived from the endogenous protein uromodulin, developed as an antagonist of Ig light chain; sequence probably AHWSGHCCL",block of the Ig-LC -induced ear swelling,"Ig light chain [1]; 2 µg per mouse (1.9 nmole) i.v. 30 min before hapten challenge, 2 hours after challenge",completely block
same,induction of an ear swelling response,Ig light chain [1]; 50 µg F991 intraperitoneally at 4 or 24 hours before hapten challenge,completely prevented
same,Ig-LC -induced ear swelling after hapten challenge,Ig light chain [1]; 50 µg F991 subcutaneously at 4 or 24 hours before hapten challenge,completely inhibited
same,systemic inhibition of the Ig-LC effects,Ig light chain [1]; F991 ointment applied on the back of the mice instead of the ear,does not result in systemic inhibition
same,inhibition of the ear swelling induced after hapten challenge,"Ig light chain [1]; F991 ointment in Cremor Cetomacrogolis FNA applied on the ear 4 hours before hapten challenge, 2 hours after challenge",dose-dependent inhibition
same,inhibition of the ear swelling response,"Ig light chain [1]; different amounts of F991 i.v. 30 min before hapten challenge, ear thickness 2 hours after challenge",dose-dependent inhibition
same,"ear swelling, contact sensitivity",DNFB-sensitized mice; 2 hours after challenge,completely inhibited
same,"ear swelling, contact sensitivity",DNFB-sensitized mice; 24 hours after challenge,completely inhibited
same,development of clinical signs of paralysis,[2]; [4],completely prevented
same,disease burden (mean cumulative EAE score),[2]; [4],4.2
same,clinical symptoms after termination of the treatment,[2]; termination of F991 at 21 days after sensitization,some minor clinical symptoms
same,stability of F991 in ointment (activity after storage),Ig light chain [3],retained its activity
